Test results published in article PMC8347709 (International Journal of Molecular Sciences, 2021).

Legend:
[1] = stability of the formulated product; assay type: physicochemical; conditions: in saline, within 24 h at room temperature
Description: The purification of the product was performed by semipreparative HPLC (Figure 3), followed by trapping on a Sep-Pack C18-light cartridge and elution with EtOH. For biological experiments, the solvent was evaporated under a stream of nitrogen at 70 °C until a volume of about 20–30 µL remained. The product was formulated by using 280 µL saline (0.9% aqueous NaCl). The total synthesis time was about 70 min. […] A logD7.4 of 3.15 ± 0.25 was determined by the shake flask method, which is in accordance with the calculated cLogP of 3.0 (ChemDraw Professional 19.0).

[2] = molecular target: T1, CB2R expression in the spleen (Rattus norvegicus, UniProt Q9QZN9); assay: dynamic PET/MR of spleen uptake in healthy rats; assay type: in vivo, Wistar rats; conditions: single blocking experiment, GW405833 1.5 mg/kg i.v. 10 min prior tracer
T1 construct: from tissue; host or cells: spleen of living male Wistar Hun rats (in vivo PET)
T1 sequence (Q9QZN9 1-360): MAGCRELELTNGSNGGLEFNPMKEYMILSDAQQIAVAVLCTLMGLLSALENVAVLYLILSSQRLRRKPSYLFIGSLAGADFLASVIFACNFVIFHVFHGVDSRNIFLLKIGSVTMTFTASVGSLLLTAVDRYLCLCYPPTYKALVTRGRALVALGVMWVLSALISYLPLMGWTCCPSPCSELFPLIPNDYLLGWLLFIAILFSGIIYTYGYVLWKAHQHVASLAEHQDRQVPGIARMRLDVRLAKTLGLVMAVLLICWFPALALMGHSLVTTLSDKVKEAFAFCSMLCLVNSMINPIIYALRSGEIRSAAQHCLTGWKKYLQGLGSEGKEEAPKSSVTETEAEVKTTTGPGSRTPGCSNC
Text: For the uptake studies into the spleen three male Wistar Hun rats (Janvier Laboratories, Le Genest Saint Isle, France) weighing 268 ± 56 g were used. For the uptake studies into the brain, five female Wistar rats weighing 263 ± 13 g carrying the stereotactically injected AAV 2/7-CaMKII0.4-intron-hCB2R D80N (right striatum) and AAV2/7-CaMKII0.4-intron-3flag-eGFP (contralateral, left striatum). Animals were initially anaesthetised with 5% isoflurane and placed on a thermostatically heated animal bed where anaesthesia was maintained with 2% isoflurane in 60% oxygen/38% room air. […] List-mode PET data were binned as a series of attenuation-corrected sinogram frames (12 × 10 s, 6 × 30 s, 5 × 60 s and 10 × 300 s) and were reconstructed by ordered subset expectation maximisation (OSEM3D) with four iterations, six subsets and a voxel size of 0.4 mm^3 (Nucline v2.01, Mediso, Hungary). […] Non-parametrical analyses of achieved time-activity curves (TACs) were performed with Microsoft Excel to determine the time to peak, the TAC peak value and the area-under-the-zero-momentum curve (AUC):(1) AUC0−tx=∫0txcradioactivity × dt where c (radioactivity) is expressed as a standardised uptake value normalised to the bodyweight in g (SUV), the area-under-first-momentum curve (AUMC):(2) AUMC0−tx=∫0txt × cradioactivity × dt and the mean residence time (MRT):(3) MRT=AUMC0−tx/AUC0−tx […]

hCB2R(D80N) = molecular target: T2, hCB2R(D80N) (Homo sapiens, UniProt P34972, D80N); assay: PET in rat model with local overexpression of hCB2R(D80N) in the right striatum; assay type: in vivo; design: reduction of the AUC20–60min by displacement: concentration or dose not given beside the values; conditions: for time to peak: TAC; for reduction of the AUC20–60min by displacement: GW405833 i.v. at 20 min p.i.; for change of AUC40–60min by displacement versus vehicle: GW405833 5 mg/kg i.v. 20 min after tracer
T2 construct: expressed in transfected cells; host or cells: rat striatal cells transduced in vivo with AAV2/7-CaMKII0.4-intron-hCB2R D80N
T2 sequence (P34972 whole entry D80N): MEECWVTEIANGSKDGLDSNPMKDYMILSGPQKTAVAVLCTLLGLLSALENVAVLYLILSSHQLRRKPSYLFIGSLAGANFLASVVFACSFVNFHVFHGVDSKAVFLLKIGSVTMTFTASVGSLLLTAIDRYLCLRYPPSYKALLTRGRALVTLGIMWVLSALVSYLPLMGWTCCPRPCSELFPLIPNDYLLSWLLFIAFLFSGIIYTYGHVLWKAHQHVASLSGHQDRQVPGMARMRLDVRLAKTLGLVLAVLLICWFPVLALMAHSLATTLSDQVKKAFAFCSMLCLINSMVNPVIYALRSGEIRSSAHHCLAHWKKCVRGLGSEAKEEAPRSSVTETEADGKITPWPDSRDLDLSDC
Text: For the uptake studies into the spleen three male Wistar Hun rats (Janvier Laboratories, Le Genest Saint Isle, France) weighing 268 ± 56 g were used. For the uptake studies into the brain, five female Wistar rats weighing 263 ± 13 g carrying the stereotactically injected AAV 2/7-CaMKII0.4-intron-hCB2R D80N (right striatum) and AAV2/7-CaMKII0.4-intron-3flag-eGFP (contralateral, left striatum). Animals were initially anaesthetised with 5% isoflurane and placed on a thermostatically heated animal bed where anaesthesia was maintained with 2% isoflurane in 60% oxygen/38% room air. […] List-mode PET data were binned as a series of attenuation-corrected sinogram frames (12 × 10 s, 6 × 30 s, 5 × 60 s and 10 × 300 s) and were reconstructed by ordered subset expectation maximisation (OSEM3D) with four iterations, six subsets and a voxel size of 0.4 mm^3 (Nucline v2.01, Mediso, Hungary). The analysis of reconstructed datasets was performed with PMOD software (v4.103, PMOD Technologies LLC, Zurich, Switzerland). Non-parametrical analyses of achieved time-activity curves (TACs) were performed with Microsoft Excel to determine the time to peak, the TAC peak value and the area-under-the-zero-momentum curve (AUC):(1) AUC0−tx=∫0txcradioactivity × dt where c (radioactivity) is expressed as a standardised uptake value normalised to the bodyweight in g (SUV), the area-under-first-momentum curve (AUMC):(2) AUMC0−tx=∫0txt × cradioactivity × dt and the mean residence time (MRT):(3) MRT=AUMC0−tx/AUC0−tx

hCB2R = hCB2R (Homo sapiens, UniProt P34972); assay: homologous competition with [18F]LU14 on hCB2R-CHO cell membrane homogenates; assay type: binding; design: host or cells: CHO cells, stably transfected
Sequence of hCB2R (P34972 whole entry): as the sequence (P34972 whole entry D80N) above, with N80D counted along it
Description: A value of 2.9 nM was experimentally determined. Next, the in vitro evaluation by autoradiography on spleen tissue was performed (Supplementary Figure S1), as the spleen is regarded as a suitable reference organ, having high densities of CB2R (rat spleen CB2R Bmax = 0.71 pmol/mg).
The inhibition curve was obtained by non-linear regression of percent specific binding (mean ±SD; one experiment run in triplicate) plotted versus the log concentration of the test compound.

[3] = hCB2R D80N-to-cerebellum, vehicle (10 min prior tracer), n = 3
[4] = hCB2R D80N-to-contralateral, vehicle (10 min prior tracer), n = 3
[5] = same rat model, comparator data ref 68

Question: With C[C@H]1CC[C@@H](NC(=O)c2cc3cccnc3n(CCCC[18F])c2=O)CC1 [[^18F]LU14] as the compound, how does the “decomposition of the formulated product” value [1] read?
Answer: No decomposition

Question: And the “AUC0–60min in the spleen, blocking versus control” value [2]?
Answer: comparable

Question: And the time to peak (hCB2R(D80N); cerebellum)?
Answer: 1.6 ± 1.4 min

Question: And the time to peak (hCB2R(D80N); contralateral region)?
Answer: 3.8 ± 1.6 min

Question: And the time to peak (hCB2R(D80N); hCB2R(D80N) right striatum, rats, i.v., n = 3)?
Answer: 7.4 ± 2.8 min

Question: What about the AUC (hCB2R(D80N); cerebellum) of the same compound?
Answer: 41.1 ± 5.6 SUV × min

Question: And the AUMC (hCB2R(D80N); cerebellum)?
Answer: 819 ± 132 SUV × min^2

Question: What about the MRT (hCB2R(D80N); cerebellum) of the same compound?
Answer: 19.9 ± 1.2 min

Question: And the TAC peak value (hCB2R(D80N); cerebellum)?
Answer: 2.7 ± 0.0 SUV

Question: What about the “reduction of the AUC20–60min by displacement” value (hCB2R(D80N); compared to the cerebellum) of the same compound?
Answer: 76%

Question: What about the “reduction of the AUC20–60min by displacement” value (hCB2R(D80N); compared to the contralateral region) of the same compound?
Answer: 73%

Question: And the AUC (hCB2R(D80N); contralateral region)?
Answer: 42.6 ± 6.8 SUV × min

Question: And the AUMC (hCB2R(D80N); contralateral region)?
Answer: 854 ± 165 SUV × min^2

Question: And the MRT (hCB2R(D80N); contralateral region)?
Answer: 20.0 ± 1.1 min

Question: What about the TAC peak value (hCB2R(D80N); contralateral region) of the same compound?
Answer: 2.2 ± 0.4 SUV

Question: What about the “change of AUC40–60min by displacement versus vehicle” value (hCB2R(D80N); hCB2R D80N-to-cerebellum) of the same compound?
Answer: −76.3%

Question: And the “AUC40–60min (CI95%)” value (hCB2R(D80N); hCB2R D80N-to-cerebellum, displacement by GW405833 5 mg/kg i.v. 20 min after tracer, n = 2)?
Answer: 51 (42 to 60) SUVr × min

Question: What about the “AUC0–20min (CI95%)” value (hCB2R(D80N); hCB2R D80N-to-cerebellum, displacement group (GW405833 5 mg/kg i.v. 20 min after tracer), n = 2) of the same compound?
Answer: 49 (40 to 59) SUVr × min

Question: What about the “AUC0–20min (CI95%)” value (hCB2R(D80N); [3]) of the same compound?
Answer: 44 (39 to 48) SUVr × min

Question: What about the “AUC40–60min (CI95%)” value (hCB2R(D80N); [3]) of the same compound?
Answer: 215 (190 to 241) SUVr × min

Question: What about the “change of AUC40–60min by displacement versus vehicle” value (hCB2R(D80N); hCB2R D80N-to-contralateral) of the same compound?
Answer: −73.4%

Question: And the “AUC40–60min (CI95%)” value (hCB2R(D80N); hCB2R D80N-to-contralateral, displacement by GW405833 5 mg/kg i.v. 20 min after tracer, n = 2)?
Answer: 56 (50 to 62) SUVr × min

Question: And the “AUC0–20min (CI95%)” value (hCB2R(D80N); hCB2R D80N-to-contralateral, displacement group (GW405833 5 mg/kg i.v. 20 min after tracer), n = 2)?
Answer: 48 (41 to 54) SUVr × min

Question: What about the “AUC0–20min (CI95%)” value (hCB2R(D80N); [4]) of the same compound?
Answer: 40 (37 to 42) SUVr × min

Question: What about the “AUC40–60min (CI95%)” value (hCB2R(D80N); [4]) of the same compound?
Answer: 210 (190 to 231) SUVr × min

Question: What about the AUC (hCB2R(D80N); hCB2R(D80N) right striatum) of the same compound?
Answer: 155 ± 28 SUV × min

Question: And the AUMC (hCB2R(D80N); hCB2R(D80N) right striatum)?
Answer: 4349 ± 701 SUV × min^2

Question: And the MRT (hCB2R(D80N); hCB2R(D80N) right striatum)?
Answer: 28.0 ± 0.4 min

Question: What about the TAC peak value (hCB2R(D80N); hCB2R(D80N) right striatum) of the same compound?
Answer: 3.3 ± 0.6 SUV

Question: What about the “uptake in the brain region with CB2R overexpression compared to [11C]NE40” value (hCB2R(D80N); [5]) of the same compound?
Answer: about two-fold

Question: And the “uptake in the brain region with CB2R overexpression compared to [18F]MA3” value (hCB2R(D80N); [5])?
Answer: about five-fold

Question: And the Kd (hCB2R)?
Answer: 2.9 nM
